From US7601716B2, “Pyridopyrazines and derivatives thereof as ALK and c-Met inhibitors” (Cephalon, Inc., priority 2006, dated 2009)

Columns and labels:
[1] = biological target: T1, c-Met (cytoplasmic domain) (Homo sapiens, UniProt P08581); experiment: c-Met Kinase Assay (ELISA/TRF, PLC-γ substrate); format: biochemical; conditions: 3 μM ATP (Km level); read-out: c-Met Kinase Inhibition (IC50)
T1 construct: Reactions were initiated with 30 ng/mL c-Met (cytoplasmic domain, Invitrogen Corporation #PV3143); purchased Invitrogen Corporation PV3143
Outline: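 c-Met cytoplasmic domain (30 ng/mL) phosphorylates plate-coated GST–PLC-γ for 15 min at 37 °C. Phosphotyrosine detected with Eu-labeled PT66 antibody by time-resolved fluorescence. IC50 from variable-slope sigmoidal fit of % inhibition vs log concentration.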

[2] = biological target: baculovirus-expressed ALK (Homo sapiens, UniProt Q9UM73); experiment: ALK Kinase Assay (ELISA/TRF, PLC-γ substrate); format: biochemical; conditions: read-out: ALK Kinase Inhibition (IC50); further: 1 µM ATP (Km level)
Outline: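 An ELISA adapted from a trkA format was used: wells carried GST-fused PLC-γ substrate, and enzyme addition (30 ng/ml ALK) started a 15-minute reaction at 37° C.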

Chain of baculovirus-expressed ALK (Q9UM73 19-1620): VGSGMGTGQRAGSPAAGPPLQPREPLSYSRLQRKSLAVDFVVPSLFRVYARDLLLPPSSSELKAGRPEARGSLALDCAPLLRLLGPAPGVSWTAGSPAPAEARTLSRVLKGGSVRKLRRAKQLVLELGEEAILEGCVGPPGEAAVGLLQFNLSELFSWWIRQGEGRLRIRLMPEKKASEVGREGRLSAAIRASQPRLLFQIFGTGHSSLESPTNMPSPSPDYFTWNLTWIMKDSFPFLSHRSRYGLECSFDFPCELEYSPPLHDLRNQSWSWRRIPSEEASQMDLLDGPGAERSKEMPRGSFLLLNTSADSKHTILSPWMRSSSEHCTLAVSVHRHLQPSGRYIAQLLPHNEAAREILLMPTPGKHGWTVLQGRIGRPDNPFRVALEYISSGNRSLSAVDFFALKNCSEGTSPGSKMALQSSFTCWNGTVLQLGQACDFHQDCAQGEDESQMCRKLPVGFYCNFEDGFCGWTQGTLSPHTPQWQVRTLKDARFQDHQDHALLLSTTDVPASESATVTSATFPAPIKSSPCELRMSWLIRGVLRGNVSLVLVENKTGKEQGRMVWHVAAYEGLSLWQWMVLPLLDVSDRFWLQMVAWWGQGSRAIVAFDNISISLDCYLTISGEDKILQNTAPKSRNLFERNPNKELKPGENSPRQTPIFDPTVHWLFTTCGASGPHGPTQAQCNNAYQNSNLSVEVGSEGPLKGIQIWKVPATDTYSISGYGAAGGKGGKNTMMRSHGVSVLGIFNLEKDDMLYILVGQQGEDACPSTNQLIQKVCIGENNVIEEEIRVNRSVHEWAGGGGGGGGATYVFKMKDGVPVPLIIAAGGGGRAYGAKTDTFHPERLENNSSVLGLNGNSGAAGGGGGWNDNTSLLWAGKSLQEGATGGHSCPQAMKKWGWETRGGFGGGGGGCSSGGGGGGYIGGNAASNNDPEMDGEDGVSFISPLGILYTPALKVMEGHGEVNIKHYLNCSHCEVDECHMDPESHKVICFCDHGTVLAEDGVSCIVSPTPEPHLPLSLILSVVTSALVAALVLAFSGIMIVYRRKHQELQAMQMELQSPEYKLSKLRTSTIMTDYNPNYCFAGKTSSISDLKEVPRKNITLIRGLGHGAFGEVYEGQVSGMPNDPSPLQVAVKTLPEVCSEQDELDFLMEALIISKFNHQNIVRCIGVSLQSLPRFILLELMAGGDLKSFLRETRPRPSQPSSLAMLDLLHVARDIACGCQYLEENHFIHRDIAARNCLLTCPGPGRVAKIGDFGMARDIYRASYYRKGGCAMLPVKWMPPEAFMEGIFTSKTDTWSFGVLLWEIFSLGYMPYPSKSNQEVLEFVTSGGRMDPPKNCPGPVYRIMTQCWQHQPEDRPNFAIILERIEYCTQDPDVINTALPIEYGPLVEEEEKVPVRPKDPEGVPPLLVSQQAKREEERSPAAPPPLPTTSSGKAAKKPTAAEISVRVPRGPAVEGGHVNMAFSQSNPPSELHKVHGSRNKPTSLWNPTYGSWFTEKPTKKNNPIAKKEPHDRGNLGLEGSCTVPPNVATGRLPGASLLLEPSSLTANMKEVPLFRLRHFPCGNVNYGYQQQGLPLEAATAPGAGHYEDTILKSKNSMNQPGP
T1 sequence (P08581 956-1390 limits assumed): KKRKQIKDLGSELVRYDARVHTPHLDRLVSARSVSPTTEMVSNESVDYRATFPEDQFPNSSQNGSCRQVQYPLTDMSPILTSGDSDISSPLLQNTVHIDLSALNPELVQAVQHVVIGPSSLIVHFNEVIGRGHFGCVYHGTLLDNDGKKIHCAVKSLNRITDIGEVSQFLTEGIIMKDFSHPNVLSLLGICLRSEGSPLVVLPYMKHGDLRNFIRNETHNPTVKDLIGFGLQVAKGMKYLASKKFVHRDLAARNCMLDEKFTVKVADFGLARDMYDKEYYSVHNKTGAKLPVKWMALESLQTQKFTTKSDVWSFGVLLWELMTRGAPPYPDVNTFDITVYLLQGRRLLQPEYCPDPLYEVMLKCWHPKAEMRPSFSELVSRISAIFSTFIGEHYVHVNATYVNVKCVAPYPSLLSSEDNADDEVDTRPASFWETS

SMILES	melting point	IC50 [1] [µM]	IC50 [2] [µM]
Clc1cc(-c2cnc3c(c2)N(Cc2c(Cl)cccc2Cl)CCN3)ccn1 [Example 167, 7-(2-Chloropyridin-4-yl)-1-(2,6-dichlorobenzyl)-1,2,3,4-tetrahydropyrido[2,3-b]pyrazine]	194 °C	10 to 100	0.1 to 1
CCOC(=O)c1ccc(-c2cnc3c(c2)N(Cc2cc(F)ccc2F)CCN3)cc1 [Example 63, 4-[1-(2,5-Difluorobenzyl)-1,2,3,4-tetrahydropyrido[2,3-b]pyrazin-7-yl]benzoic acid ethyl ester]	173 to 174 °C	> 100	0.1 to 1
CCOC(=O)c1cncc(-c2cnc3c(c2)N(Cc2cc(F)ccc2F)CCN3)c1 [Example 73, 5-[1-(2,5-Difluorobenzyl)-1,2,3,4-tetrahydropyrido[2,3-b]pyrazin-7-yl]-nicotinic acid ethyl ester]	169 to 172 °C	10 to 100	0.1 to 1
CN(C)CC(=O)NCC#Cc1cnc2c(c1)N(Cc1c(Cl)cccc1Cl)CCN2 [Example 172, N-{3-[1-(2,6-Dichlorobenzyl)-1,2,3,4-tetrahydropyrido[2,3-b]pyrazin-7-yl]prop-2-ynyl}-2-dimethylamino-acetamide]	> 200 °C	10 to 100	0.1 to 1
CC(=O)c1ccc(-c2cnc3c(c2)N(Cc2ccccc2)C(=O)CN3)cc1 [Example 21, 7-(4-Acetylphenyl)-1-benzyl-3,4-dihydro-1H-pyrido[2,3-b]pyrazin-2-one]	200 °C	> 100	10 to 100
FC(F)(F)c1ccc(CN2CCNc3ncc(I)cc32)o1 [Example 291, 7-Iodo-1-[5-(trifluoromethyl)furan-2-ylmethyl]-1,2,3,4-tetrahydropyrido[2,3-b]pyrazine]	153 to 154 °C	> 100	10 to 100
CCOC(=O)c1ccc(-c2cnc3c(c2)N(Cc2ccccc2)C(=O)CN3)cc1 [Example 9, 4-(1-Benzyl-2-oxo-1,2,3,4-tetrahydropyrido[2,3-b]pyrazin-7-yl)benzoic acid ethyl ester]	178 °C	> 100	10 to 100
Ic1cnc2c(c1)NCCN2 [Example 40, 7-Iodo-1,2,3,4-tetrahydropyrido[2,3-b]pyrazine]	126 to 128 °C	> 100	> 100
O=C(NCCN1CCCC1)c1ccc(-c2cnc3c(c2)N(Cc2c(Cl)cccc2Cl)C(=O)CN3)cc1 [Example 142, 4-[1-(2,6-Dichlorobenzyl)-2-oxo-1,2,3,4-tetrahydropyrido[2,3-b]pyrazin-7-yl]-N-(2-pyrrolidin-1-yl-ethyl)benzamide]	> 200 °C	1 to 10	0.1 to 1
N#Cc1cnc2c(c1)N(Cc1cc(Cl)ccc1Cl)CCN2 [Example 127, 1-(2,5-Dichlorobenzyl)-1,2,3,4-tetrahydropyrido[2,3-b]pyrazine-7-carbonitrile]	221 to 222 °C	> 100	1 to 10
CCOC(=O)c1ccc(-c2cnc3c(c2)N(C(=O)c2ccccc2)CCN3)cc1 [Example 44, 4-(1-Benzoyl-1,2,3,4-tetrahydropyrido[2,3-b]pyrazin-7-yl)benzoic acid ethyl ester]	177 to 178 °C	10 to 100	> 100
Fc1ccc(F)c(CN2CCNc3ncc(I)cc32)c1Cl [Example 98, 1-(2-Chloro-3,6-difluorobenzyl)-7-iodo-1,2,3,4-tetrahydropyrido[2,3-b]pyrazine]	156 to 157 °C	> 100	1 to 10
N#Cc1ccc(-c2cnc3c(c2)N(Cc2ccccc2)C(=O)CN3)cn1 [Example 28, 5-(1-Benzyl-2-oxo-1,2,3,4-tetrahydropyrido[2,3-b]pyrazin-7-yl)pyridine-2-carbonitrile]	> 200 °C	> 100	> 100
CN1CCN(c2ccc(-c3cnc4c(c3)C(O)CCN4)cn2)CC1 (stereo not drawn) [Example 269, 6-[6-(4-Methyl-piperazin-1-yl)pyridin-3-yl]-1,2,3,4-tetrahydro-[1,8]naphthyridin-4-ol]	124 to 128 °C	10 to 100	> 100
O=C(c1ccccc1)N1CCNc2ncc(-c3cccnc3)cc21 [Example 43, Phenyl-(7-pyridin-3-yl-3,4-dihydro-2H-pyrido[2,3-b]pyrazin-1-yl)methanone]	219 to 220 °C	10 to 100	> 100
CN(C)CC#Cc1cnc2c(c1)N(Cc1cc(Cl)ccc1Cl)CCN2 [Example 173, {3-[1-(2,5-Dichlorobenzyl)-1,2,3,4-tetrahydropyrido[2,3-b]pyrazin-7-yl]prop-2-ynyl}-dimethylamine]	168 °C	1 to 10	1 to 10

SMILES	melting point	IC50 [1] [µM]	IC50 [2] [µM]
CCOC(=O)c1ccc(-c2cnc3c(c2)NC(=O)CN3)cc1 [Example 135, 4-(2-Oxo-1,2,3,4-tetrahydropyrido[2,3-b]pyrazin-7-yl)benzoic acid ethyl ester]	> 200 °C	> 100	> 100
Fc1ccc(F)c(/C=C2/CCNc3nc(Br)ccc32)c1 [Example 283, 7-Bromo-4-[1-(2,5-difluorophenyl)methylidene]-1,2,3,4-tetrahydro-[1,8]naphthyridine]	178 to 179 °C	> 100	> 100
Clc1ccc(Cl)c(CN2CCNc3ncc(I)cc32)c1 [Example 158, 1-(2,5-Dichlorobenzyl)-7-iodo-1,2,3,4-tetrahydropyrido[2,3-b]pyrazine]	169 °C	> 100	1 to 10
CCOC(=O)c1ccc(-c2cnc3c(c2)N(Cc2ccccc2)CCN3)cc1 [Example 35, 4-(1-Benzyl-1,2,3,4-tetrahydropyrido[2,3-b]pyrazin-7-yl)benzoic acid ethyl ester]	178 to 179 °C	> 100	1 to 10
N#Cc1c(F)ccc(F)c1CN1CCNc2ncc(-c3ccc(N4CCOCC4)nc3)cc21 [Example 289, 3,6-Difluoro-2-[7-(6-morpholin-4-yl-pyridin-3-yl)-3,4-dihydro-2H-pyrido[2,3-b]pyrazin-1-ylmethyl]benzonitrile]	188 to 190 °C	0.1 to 1	< 0.1
CN1CCN(c2ccc(-c3cnc4c(c3)N(C(=O)Cc3cc(F)ccc3F)CCN4)cn2)CC1 [Example 113]	> 300 °C	10 to 100	1 to 10
O=C(c1ccc(-c2cnc3c(c2)N(Cc2cc(F)ccc2F)C(=O)CN3)cc1)N1CCC(N2CCCC2)CC1 [Example 60, 1-(2,5-Difluorobenzyl)-7-[4-(4-(pyrrolidin-1-yl)piperidine-1-carbonyl)phenyl]-3,4-dihydro-1H-pyrido[2,3-b]pyrazin-2-one]	186 °C (dec.)	1 to 10	0.1 to 1
O=C1CNc2ncc(I)cc2N1Cc1c(Cl)cccc1Cl [Example 136, 1-(2,6-Dichlorobenzyl)-7-iodo-3,4-dihydro-1H-pyrido[2,3-b]pyrazin-2-one]	> 200 °C	> 100	> 100
CN1CCN(C(=O)c2ccc(-c3cnc4c(c3)N(Cc3cc(F)ccc3F)C(=O)C(C)(C)N4)cc2)CC1 [Example 95, 1-(2,5-Difluorobenzyl)-3,3-dimethyl-7-[4-(4-methylpiperazine-1-carbonyl)phenyl]-3,4-dihydro-1H-pyrido[2,3-b]pyrazin-2-one]	204 to 206 °C	10 to 100	1 to 10
CC1(C)Nc2ncc(-c3ccc(C(=O)N4CCC[C@H]4CN4CCCC4)cc3)cc2N(Cc2cc(F)ccc2F)C1=O [Example 94, 1-(2,5-Difluorobenzyl)-3,3-dimethyl-7-[4-((S)-2-[(pyrrolidin-1-yl)methyl]pyrrolidine-1-carbonyl)phenyl]-3,4-dihydro-1H-pyrido[2,3-b]pyrazin-2-one]	171 to 172 °C	10 to 100	1 to 10
O=C(O)c1ccc(-c2cnc3c(c2)N(Cc2c(Cl)cccc2Cl)C(=O)CN3)cc1 [Example 140, 4-[1-(2,6-Dichlorobenzyl)-2-oxo-1,2,3,4-tetrahydropyrido[2,3-b]pyrazin-7-yl]benzoic acid]	> 200 °C	1 to 10	1 to 10
O=C1CNc2ncc(I)cc2N1Cc1ccccc1OC(F)(F)F [Example 294, 7-Iodo-1-[2-(trifluoromethoxy)benzyl]-3,4-dihydro-1H-pyrido[2,3-b]pyrazin-2-one]	235 °C	10 to 100	10 to 100
Fc1ccc(F)c(CN2CCNc3ncc(I)cc32)c1 [Example 62, 1-(2,5-Difluorobenzyl)-7-iodo-1,2,3,4-tetrahydropyrido[2,3-b]pyrazine]	175 °C	10 to 100	1 to 10
CN1CCN(C(=O)c2ccc(-c3cnc4c(c3)N(Cc3ccccc3)CCN4)cc2)CC1 [Example 37, [4-(1-Benzyl-1,2,3,4-tetrahydropyrido[2,3-b]pyrazin-7-yl)phenyl]-(4-methylpiperazin-1-yl)methanone]	180 to 181 °C	10 to 100	1 to 10
CC(c1c(F)ccc(F)c1Cl)N1CCNc2ncc(I)cc21 (stereo not drawn) [Example 176, 1-[1-(2-Chloro-3,6-difluorophenyl)ethyl]-7-iodo-1,2,3,4-tetrahydropyrido[2,3-b]pyrazine]	166 °C	10 to 100	1 to 10
